Experimental data as given in article PMC12686126, “LL‐37 Inhibits TMPRSS2‐Mediated S2' Site Cleavage and SARS‐CoV‐2 Infection but Not Omicron Variants” (Cell Proliferation, 2025).

Experiments:
[1] = test system: S2 subunit of Omicron variants; format: binding, SARS‐CoV‐2 Omicron variants
[2] = test system: S2 subunit of BA.2, BA.2.75, BA.4, BA.5, BQ.1, XBB, XBB.1.5, XBB.1.16, CH.1.1, XBB.1.9, XBB.2.3 and EG.5.1; format: binding, SARS‐CoV‐2 Omicron variants

In the case of “LLGDFFRKSKEKIGKEFKRIVQRIKDFLRNLVPRTES [LL‐37]”, the “S2 subunit bound to plasma membrane with facilitation by LL‐37” value [1] is reported as “S2 subunit of SARS‐CoV‐2 rather than Omicron variants obviously bound” and the “binding of S2 subunit to immobilised LL‐37” value [2] is reported as “much lower binding”.
